row,SMILES,melting point
1,CC(=O)c1c(C)c(NC(=O)CC(C)(C)C)c(C)c2c1OCC2c1ccc(C(C)C)cc1 (centres undefined),176 to 177 °C
2,C=C(CCl)C(C(=O)OC(c1ccccc1)c1ccccc1)N1C(=O)C2N=C(Cc3ccccc3)OC21 (centres undefined),82 to 83 °C
3,CC(=O)C1CC2CCC1(COC(=O)Oc1ccccc1)CC2 (centres undefined),74 to 75 °C
4,CCn1cc(C(=O)O)c(=O)c2cc(F)c(N3CCN(S(=O)(=O)c4ccc(F)cc4)CC3)c(F)c21,243 to 244 °C
5,COc1cccc2[nH]cc(/C(C#N)=C/c3cccnc3)c12,177 °C
6,CC(C)c1ccc(N(Cc2cnn(Cc3ccc(Cl)s3)c2)C(=O)C2CCCc3c(O)cccc32)cn1 (centres undefined),98 to 101 °C
7,COc1ccc(-c2cc(CN3CCN(C)CC3)c(=O)n(Cc3ccc(F)c(F)c3)n2)cc1F,135 to 136 °C
8,Cn1c2ccc(C(=O)c3ccccc3)cc2c2cc(C(=O)c3ccccc3)ccc21,222 °C
9,O=C(O)CCc1sc(-c2ccccc2)nc1-c1ccc(Cl)cc1,142 to 143 °C
10,O=C(O)COc1ccc2c(-c3ccc(O)cc3F)noc2c1Cl,216 to 218 °C
11,CC1=C(C)C(C)(OC(N)=O)N(c2ccc(Cl)c(Cl)c2)C1=O (centres undefined),141 to 142 °C
12,Cc1cc(-c2cc(CO)c(=O)n(Cc3ccccc3Cl)n2)ccc1F,149 to 150 °C
13,O=C1Cc2c(cccc2NC(=O)c2cccn(-c3ccc(F)cc3)c2=O)N1,293 to 295 °C
14,O=c1ccc2ccc(OCCCN3CCC(C(O)(c4ccc(F)cc4)c4ccc(F)cc4)CC3)cc2o1,99 to 120 °C
15,NS(=O)(=O)c1cc(C(=O)O)cc(SCc2ccccc2)c1Sc1ccccc1,208 to 209 °C
16,Clc1cc(Cl)cc(-c2nc(Cl)c3ccccc3n2)c1,274 °C
17,COc1ccc(C(=O)[NH+]([O-])c2c(Cl)cncc2Cl)c2c1oc1ccc(C(F)(F)F)cc12 (centres undefined),272 °C
18,CCCCCCCCCCCCCCCCCC(=O)N1C(CCCCCCCCCCCCCCCCC)NC(=O)CC1C(=O)O (centres undefined),107 to 111 °C
19,OCCOc1ccc2nc(S)sc2c1,162 to 165 °C
20,CC#Cc1ccccc1S(N)(=O)=O,147 to 149 °C
21,CC(C)(C)OC(=O)N(CCOc1cccc2[nH]ccc12)Cc1ccccc1,46 to 48 °C
22,O=C(NCc1ccccc1)C1C=Nc2ccccc2S1 (centres undefined),160 to 162 °C
23,Nc1ccc2sc(C=Cc3ccccc3)nc2c1,154 to 156 °C
24,O=C(Nc1ccncc1)c1ccc(OC(F)F)c2oc3ccc(C(F)(F)F)cc3c12,228 °C
25,CC(/C=C/c1ccccc1-c1ccc2c(c1)C(C)(C)CCC2(C)C)=C\C(=O)O,178 to 179 °C

row,SMILES,melting point
1,CC(O)Cc1cc(N)cc([N+](=O)[O-])c1N (centres undefined),115 °C
2,O=C(OC1COC(OC(=O)C2CCCCC2)CO1)C1CCCCC1 (centres undefined),156 to 158 °C
3,Nc1cccc2ccc(C(=O)O)cc12,221 to 223 °C
4,C=C(C#N)S(=O)(=O)c1ccc(OC(F)(F)C(Cl)Cl)cc1,89 to 90 °C
5,COC(=O)c1c(C(=O)OC)c(-c2ccc(Cl)cc2)n2c1Cc1c(n(C)c3ccccc13)C2,264 to 265 °C
6,N#CC(C(=O)O)=C(c1ccc(F)cc1)c1ccc(F)cc1,180 to 181 °C
7,O=c1oc(-c2ccc3c(c2)OCCO3)cc(O)c1C(CC1CC1)SC1CCCC1 (centres undefined),80 to 82 °C
8,CCOc1cc(Cc2cnc(N)nc2N)cc2c1OC(C)(C)C=C2C(C)(O)CC (centres undefined),127 to 128 °C
9,COc1ccc(Cn2cnc3c(-c4ccco4)nc(C)nc32)cc1,127 to 130 °C
10,COC(=O)C1=C(C)NC(CC(=O)N2CCN(C3CC4CCC(C3)N4C(=O)OC(C)Cl)CC2)=C(C(=O)OC)C1c1c(Cl)cccc1Cl (centres undefined),135 to 145 °C
11,O=c1oc2ccccc2c(O)c1C1CC(c2ccc(Cc3ccc(-c4ccccc4)cc3)cc2)Cc2ccccc21 (centres undefined),118 to 121 °C
12,COC(=O)c1ccc(CN2CCc3ccc(S(=O)(=O)Nc4cccc(Cl)c4)cc3C2)o1,167 to 168 °C
13,Cc1c(SCCCN2CCN(Cc3ccncc3)CC2)ccnc1CNc1cnc2ccccc2c1,145 to 150 °C
14,COC(=O)c1ccc(OCCCCl)cc1,56.5 to 59 °C
15,CCN(CC)CCOc1ccc(CNC(=O)C#Cc2ccc(C)cc2Cl)cc1,135 to 138 °C
16,Cc1[nH]c(=O)n(-c2cc(OC(C)C)c(Cl)cc2F)c(=O)c1F,162 to 164 °C
17,O=C(C[C@H](C(=O)N[C@H](COC(=O)OCc1ccccc1)c1ccccc1)n1ccc(-c2ccc(-c3ccncc3)cc2)c1)OCc1ccccc1,138 to 140 °C
18,CCOC(=O)c1cc2c(nc(C)n2C)c2c1CCC1(Cc3ccccc3C1)N2,167 to 168 °C
19,COc1ccc(C(=O)Nc2ccccc2)cc1NCc1cccc(F)c1F,134 to 135 °C
20,Clc1ccccc1-c1nc(Cl)c2ccccc2n1,127 to 129 °C
21,CCCN=C(N)Nc1ccnc(CCCCC(N)=O)n1,212 to 214 °C
22,CCCC(=O)N(Cc1ccc(-c2ccccc2-c2nc(=O)s[nH]2)cc1)c1sc(C)cc1C(=O)OC,131 to 132 °C
23,COC(=O)c1ccc2c(c1)C(SCCCl)c1ccccc1CO2 (centres undefined),100 to 102 °C
24,CCC(O)C(O)c1ccc(OCc2ccc3ccccc3c2)c(OC)c1 (centres undefined),120 °C
25,Cc1nc(-c2ccccc2C(F)(F)F)c(CC(Cl)C(=O)O)o1 (centres undefined),158 to 159 °C

row,SMILES,melting point
1,Cc1csc2[nH]cc(C#N)c(=O)c12,285 °C
2,O=C(O)c1ccccc1Oc1ccc(Cl)cc1,114 to 115 °C
3,CO/C=C(/C(=O)OC)n1cccc1C=O,58 to 59 °C
4,COCOc1ccc(Nc2ncccc2[N+](=O)[O-])cc1,80 to 81 °C
5,CS(=O)(=O)c1ccccc1OC(F)(F)F,44 to 46 °C
6,Cc1ccc(/C=C/c2ccccc2[N+](=O)[O-])c([N+](=O)[O-])c1,170 to 171 °C
7,CCN1CCN(CCCN2CC[C@H](NC(=O)c3cc(Cl)c(N)cc3OC)[C@H](OC)C2)C1=O (relative stereo),113 °C
8,Nc1nc(O)c2c(n1)NCC(CCc1ccc(C(=O)N[C@@H](CCC(=O)O)C(=O)O)[nH]1)C2 (some centres undefined),> 260 °C
9,CC(=O)Nc1cc(C(F)(F)F)ccc1N1CCc2ccccc21,153 to 155 °C
10,COc1ccc(CN2CCc3cc(OCc4ccccc4)c(OC)cc3C2)cc1OC,98 to 99 °C
11,Cc1c(C(=O)O)nc2c(=O)[nH]c3cc(S(C)(=O)=O)ccc3n12,228 °C
12,CCCCCCCCCCCCCCCCO[C@@H]1CCCO[C@H]1COCc1ccccc1 (relative stereo),28.5 to 29.5 °C
13,CS(=O)(=O)CC(=O)N[C@H]1CC[C@H](CCN2CCN(c3nccc4ccoc34)CC2)CC1,182 °C
14,NNC(=O)c1cnn(-c2ccc(NN)nn2)c1N,302 to 305 °C
15,O=C1CC2(C(=O)N1)C(=O)N(Cc1ccc(Br)cc1F)c1ccccc12 (centres undefined),218 to 220 °C
16,Cc1c(C(=O)NCC(N)=O)cccc1-c1cccc2cc(Cc3cccc(C(F)(F)F)c3)sc12,124 to 125 °C
17,CCOC(=O)C1=C(C)OC(=O)C1=C(C)O,106 to 108 °C
18,COc1ccc(C2=NNC(=O)[C@H]3CCCC[C@@H]23)cc1OC (relative stereo),143 to 146 °C
19,C=CC(=O)NCc1c(-c2ccccc2)noc1C,149 to 151 °C
20,Cc1ccc(S(=O)(=O)C=C(Cl)C#N)cc1,78 °C
21,Cc1cc(C(=O)Cl)ccc1[N+](=O)[O-],29 to 30 °C
22,O=[N+]([O-])c1cc(C(F)(F)F)ccc1C(Br)c1cnoc1C1CC1 (centres undefined),146 °C
23,CN1C(=O)C2C3C=CC(C3)C2(c2ccc(N)cc2)C1=O (centres undefined),129 to 131 °C
24,O=C(c1ccncc1)c1cccc(NC(=O)c2ccn3c2CSC3c2cccnc2)c1 (centres undefined),186 °C
25,COc1cc(OC)cc(S(=O)(=O)c2ccc([N+](=O)[O-])c(C)c2)c1,125 to 127 °C

row,SMILES,melting point
1,O=C(CN1CCN(CC2CCn3c(nc4ccccc43)S2)CC1)N1CCCC1 (centres undefined),159 to 162 °C
2,Cc1nc2c(s1)C(=O)C(C=O)CC2 (centres undefined),107 to 108 °C
3,NC(=O)NCCNc1ccc(N)cc1Cl,160 °C
4,O=C(CC(F)=C(F)F)Nc1cccc(C(=O)O)c1,252 to 255 °C
5,CCCNS(=O)(=O)c1cccc(C)c1C#N,74 to 77 °C
6,Oc1cccc(-c2csc(-c3cccnc3)n2)c1,180 to 181 °C
7,N#Cc1cnc2cc3c(cc2c1Nc1ccc(Oc2ccccc2)cc1)ncn3CCN1CCOCC1,> 260 °C
8,Cc1ncnc2c(NC(=O)c3c(Cl)cccc3Cl)cccc12,223 to 225 °C
9,CCOC(=O)Cc1ccc(NC(=O)C(Cc2ccccc2)NS(=O)(=O)c2ccc(Cl)cc2)cc1 (racemic),148 to 150 °C
10,O=[N+]([O-])c1ccc(F)cc1OCc1ccccc1,52 to 54 °C
11,CSc1nc(N)nc(N)c1-c1ccc(Cl)cc1Cl,191 to 192 °C
12,N#CCc1cccc2c(-c3ccc(C(F)(F)F)cc3)nccc12,122 to 123 °C
13,CCOC(=O)Cc1cccc(-c2nc(COc3ccc(C=O)cc3OC)c(C)o2)c1,113 to 114 °C
14,COC(=O)[C@@H](NC(=O)c1ccc(F)c(Br)c1)[C@@H](C)O,73 to 74 °C
15,Cc1cc(NC(=O)c2c(C(F)(F)F)nc3c(C(F)(F)F)cccc3c2O)no1,216 °C
16,O=C1c2cccc3c4c(cc(c23)C(=O)N1O)OCO4,303 to 304 °C
17,CC1C(=O)N(c2ccc(Oc3ccccc3)cc2)C(=S)N1Cc1ccccc1 (centres undefined),138 °C
18,CCCCN(Cc1ccc(-c2ccccc2-c2nnn[nH]2)cc1)c1ncn(C)c1C(=O)OCC,203 to 204 °C
19,COc1cc(C(C)=O)ccc1OCCCN1CCN(c2n[nH]c3cc(Cl)ccc23)CC1,132 to 134 °C
20,c1ccc(C2CCN(CCC(c3ccccc3)(c3ccccc3)c3nnn[nH]3)CC2)cc1,149 to 157 °C
21,CCOC(=O)Nc1ccc(N2CCN([C@H](C)[C@](O)(Cn3cncn3)c3ccc(F)cc3F)CC2)cc1,90 to 92 °C
22,CCN(C(=O)OC(C)(C)C)C1CC=C(c2c[nH]c3ccc(N)cc23)CC1 (centres undefined),87 to 89 °C
23,CC(=O)Nc1ccnn1-c1c(F)c(F)c(C(F)(F)F)c(F)c1F,102 to 104 °C
24,COC(=O)c1cnc(F)cn1,55.6 to 56.7 °C

# Reference: a melting point compilation (Tetko et al.; mined from patent text by program, amines drawn as free bases though some values may be those of a salt)
